Consider one compound from patent US20120264159A1, “SCREENING SYSTEM FOR MODULATORS OF HER2 MEDIATED TRANSCRIPTION AND HER2 MODULATORS IDENTIFED THEREBY” (BUCK INSTITUTE FOR AGE RESEARCH, priority 2001, published 2012).

The structures appear in SMILES notation.

For one data set, the system named is ErbB2 promoter. The data set is described as follows: Transiently transfected (episomal) RO6pGL ErbB2 promoter-reporter in MCF-7 cells. It counts as cell-based, human. Conditions: transient transfection of RO6pGL into MCF-7 cells; 0.4 μM TSA, 24 hour. How it is done:
FIGS. 11A and 11B show trichostatin A (TSA) responsiveness and DNase I hypersensitivity comparisons between the genomically integrated vs. episomally introduced ErbB2 promoter-reporter construct, RO6pGL, in MCF-7 cells. FIG. 11A: Luciferase activity (relative luminometer units) of the MCF/RO6pGL-9 subline compared to parental MCF-7 cells transiently transfected with the same ErbB2 promoter-reporter plasmid (RO6pGL) and after 24 hour treatment with 0.4 μM TSA, normalized against their respective non-treatment (vehicle only) control conditions. FIG. 11B: DNase 1 hypersensitivity analysis (described in Methods) of nuclei from MCF/RO6pGL-9 vs. MCF-7 cells transiently transfected with RO6pGL, following similar culture treatments with TSA.
In an episomal context and following transient transfection of the RO6pGL construct into MCF-7 cells, TSA produced diametrically opposite (>10-fold stimulatory) effects on this same ErbB2 promoter-driven reporter (FIG. 11). Southern blot comparisons of DNase I treated MCF/R06pGL-9 cell nuclei and those from transfected MCF-7 cells bearing the episomally introduced R06pGL plasmid confirmed the lack of a discrete DNase-I hypersensitivity site in the episomal R06pGL and the presence of such a site in the genomically integrated R06pGL, similar in location and intensity to that found within the endogenous ErbB2 promoter (FIG. 11). […]

For the next data set, the system named is ErbB2 transcript. The data set is described as follows: Northern blot of ErbB2 transcript levels in ErbB2 overexpressing breast cancer cells. It counts as cell-based, human. As for the experimental part:
The conserved and singular DNase I hypersensitivity sites found in the proximal ErbB2 and ESX promoters (12,15) were assayed as before (12). Briefly, following culture treatment of cells, nuclei isolated by mild detergent lysis in a buffer containing 10 mM Hepes pH 7.9, 1.5 mM MgCl2, 10 mM KCl, 0.4% NP-40, 10% glycerol and 1 mM DTT. Partial DNase I digestions were carried out by varying DNase I treatment times (0-15 minutes at 37( ) at a fixed DNase I concentrations (0.5-1.0 units per 10^6 nuclei). After purifying and restricting the DNA, it was electrophoresed through 0.7% agarose gels and blotted onto nylon membranes, UV-crosslinked and hybridized with randomly ^32P-labelled ErbB2 and ESX promoter probes, as similarly performed for routine Southern blotting. For Northern blotting, total (treated vs. control) cell RNA (10 μg/sample lane) was isolated using TRIzol (Invitrogen) according to manufacturer's specifications, electrophoresed into 1% agarose-formaldehyde gels and transferred onto membranes that were then hybridized with ^32P-labelled ErbB2 and ESX cDNA probes. For transcriptional run-off assays cell nuclei were first isolated from treated and control cells as described for the DNase I studies. Elongatation of initiated nascent RNA chains was performed at 37 (C for 30 minutes using ˜5×10^6 nuclei per reaction in a buffer containing 10 mM Tris pH7.5, 2.5 mM MgCl2, 150 mM KCl, 1 mM DTT, 10% glycerol, 0.5 mM ATP, GTP and CTP, and 100 μCi of [α-^32P]UTP (800 Ci/mmol). Nuclear RNA was purified by the addition of 100 units of RNase-free DNase I (Roche) per reaction for 2 minutes followed by TRIzol processing. Radiolabelled RNA was hybridized (˜4×10^6 cpm) at 68 (C in ExpressHyb (Clontech) for 24 hours to nylon filter membranes previously slotted with 0.5 μg per slot of unlabelled ErbB2 cDNA fragments (from either the transmembrane or C-terminal domains), ESX cDNA fragments, and empty plasmid control, as we have previously described (16). Filters were washed at 64 (C in 0.2 SSC and 0.5% SDS. For Western blotting, whole-cell extracts from control vs. treated cells were boiled in sample loading buffer (1% SDS, 20% glycerol, 100 mM DTT, 50 mM Tris, pH 6.8), gel lanes loaded for constant total protein (15 μg), electrophoresed into 9% sodium dodecyl sulfacte polyacrylamide (SDS-PAGE) gels, transferred onto membranes (Immobilon-P, Millipore), and the protein-bound membranes hybridized with a primary antibody followed by a horseradish peroxidase-conjugated secondary antibody (Sigma), and specific protein bands visualized by chemiluminescent substrate (Pierce), as previously described (10).

In data set [1] the test system is ErbB2 transcript synthesis. The data set is described as follows: Nuclear run-off assay of ErbB2 transcript synthesis in SKBR3 cells. It counts as cell-based, human. The note with it: 5 hours, 0.4 μM TSA. How it is done:
(§1) The conserved and singular DNase I hypersensitivity sites found in the proximal ErbB2 and ESX promoters (12,15) were assayed as before (12). Briefly, following culture treatment of cells, nuclei isolated by mild detergent lysis in a buffer containing 10 mM Hepes pH 7.9, 1.5 mM MgCl2, 10 mM KCl, 0.4% NP-40, 10% glycerol and 1 mM DTT. […]
(§2) Nuclear run-off experiments were performed on ErbB2 overexpressing breast cancer cells to confirm the conclusion drawn from TSA induced downregulation of luciferase expression in MCF/R06pGL-9 cells that HDAC inhibitors can suppress ErbB2 promoter activity and presumably also repress ErbB2 transcription. […] Slot blot hybridization stringency was adjusted so that no signal could be detected from those control slots containing the empty plasmid.

Data set [2] deals with carcinogen-induced mammary cancer. The note with it: up to 5 mg/kg, cited from earlier work.
For another data set, the system named is ESX mRNA synthesis. The data set is described as follows: Nuclear run-off assay of ESX mRNA synthesis in SKBR3 cells. It counts as cell-based, human. Conditions: 5 hours, 0.4 μM TSA. As for the experimental part:
as §1, §2

`CC(/C=C/C(=O)NO)=C\[C@@H](C)C(=O)c1ccc(N(C)C)cc1` [TSA, trichostatin A]: the “effect on episomal ErbB2 promoter-driven reporter (stimulation)” value in the data set with ErbB2 promoter is above 10 fold. Moreover, the “ErbB2 transcript levels relative to control” value in the data set with ErbB2 transcript (8 hour TSA treatment, Northern assays (data not shown)) was < 20 % of control. For the same compound, the ErbB2 transcript levels entry with ErbB2 transcript (MDA-453 and BT-474 cells, similar TSA treatment (data not shown)) was “Virtually complete elimination of ErbB2 transcript levels”; in the data set with ErbB2 transcript (SKBR3 cells, 24 hours, 0.4 μM TSA), “near total disappearance of ErbB2 transcripts”. In the data set on ErbB2 transcript (SKBR3 cells, 5 hours treatment, TSA 0.05 or 0.40 μM, Act D 10 μg/ml), the “ErbB2 mRNA level / decay” value was “greatly enhanced the rate of ErbB2 mRNA decay”. The “synthesis of new ErbB2 transcripts” value in data set [1] was “profoundly suppresses synthesis of new ErbB2 transcripts”. Besides, the ill effects result in data set [2] (adult or embryonic mice) is on record as “no ill effects”. For the same compound, the antitumor activity entry in data set [2] (ip, sc, carcinogen-induced mammary cancer) is given as “potent antitumor activity”. The “ESX mRNA synthesis” value in the data set with ESX mRNA synthesis is recorded as “preserves ESX mRNA synthesis”.
